Assay results published in patent US4861788A, “Antibacterial 1-normon-2-yl-heterocyclic compounds” (Beecham Group plc, priority 1983, dated 1989).
≈ marks a conversion by molar mass, not a printed value.

What was measured:
[1] = test system: M. hyopneumoniae NB12; assay: MIC against Mycoplasma in vitro (Friis broth with agarose); format: cell-based; conditions: Mesomycoplasma hyopneumoniae, NB12, 144 h
[2] = test system: M. hyopneumoniae JF 435; assay: as above; format: cell-based; conditions: Mesomycoplasma hyopneumoniae, JF435, 144 h
[3] = test system: M. hyopneumoniae HK (2); assay: as above; format: cell-based; conditions: Mesomycoplasma hyopneumoniae, 144 h
[4] = test system: M. hyopneumoniae J2206/183^b; assay: as above; format: cell-based; conditions: Mesomycoplasma hyopneumoniae, 144 h
[5] = test system: M. hyopneumoniae PW/C/210; assay: as above; format: cell-based; conditions: Mesomycoplasma hyopneumoniae, 144 h
[6] = test system: M. hyopneumoniae LABER; assay: as above; format: cell-based; conditions: Mesomycoplasma hyopneumoniae, 144 h
[7] = test system: Bacillus subtilis 6633; assay: MIC against human bacteria in vitro (nutrient agar, chocolated horse blood); format: cell-based; conditions: Bacillus subtilis, 6633, 18 h
Summary of the method: (§1)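 Agar dilution series; medium supplemented with 5% chocolated horse blood; MIC taken from the dilution series.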

[8] = test system: Corynebacterium xerosis 9755; assay: as above; format: cell-based; conditions: Corynebacterium xerosis, 9755, 18 h
Summary of the method: as §1

[9] = test system: E. coli ESS; assay: as above; format: cell-based; conditions: Escherichia coli, 18 h
Summary of the method: as §1

[10] = test system: E. coli NCTC 10418; assay: as above; format: cell-based; conditions: Escherichia coli, NCTC10418, 18 h
Summary of the method: as §1

[11] = test system: Haemophilus influenzae Q1; assay: as above; format: cell-based; conditions: Haemophilus influenzae, Q1, 18 h
Summary of the method: as §1

[12] = test system: Haemophilus influenzae Wy21; assay: as above; format: cell-based; conditions: Haemophilus influenzae, WY21, 18 h
Summary of the method: as §1

[13] = test system: K. aerogenes A; assay: as above; format: cell-based; conditions: Klebsiella aerogenes, 18 h
Summary of the method: as §1

[14] = test system: Neisseria catarrhalis 1502; assay: as above; format: cell-based; conditions: Neisseria, 1502, 18 h
Summary of the method: as §1

[15] = test system: P. mirabilis 889; assay: as above; format: cell-based; conditions: Proteus mirabilis, 889, 18 h
Summary of the method: as §1

[16] = test system: Pasteurella multocida 1633; assay: as above; format: cell-based; conditions: Pasteurella multocida, 1633, 18 h
Summary of the method: as §1

[17] = test system: Ps. aeruginosa NCTC 10662; assay: as above; format: cell-based; conditions: Pseudomonas aeruginosa, NCTC10662, 18 h
Summary of the method: as §1

[18] = test system: Sarcina lutea 8340; assay: as above; format: cell-based; conditions: Micrococcus luteus, 8340, 18 h
Summary of the method: as §1

[19] = test system: Staph. aureus Oxford; assay: as above; format: cell-based; conditions: Staphylococcus aureus, 18 h
Summary of the method: as §1

[20] = test system: Staph. aureus Russell; assay: as above; format: cell-based; conditions: Staphylococcus aureus, 18 h
Summary of the method: as §1

[21] = test system: Staph. aureus W2827; assay: as above; format: cell-based; conditions: Staphylococcus aureus, W2827, 18 h
Summary of the method: as §1

[22] = test system: Strep. agalactiae 2788-B; assay: as above; format: cell-based; conditions: Streptococcus agalactiae, 2788B, 18 h
Summary of the method: as §1

[23] = test system: Strep. faecalis I; assay: as above; format: cell-based; conditions: Enterococcus faecalis, 18 h
Summary of the method: as §1

[24] = test system: Strep. pneumoniae CN33; assay: as above; format: cell-based; conditions: Streptococcus pneumoniae, CN33, 18 h
Summary of the method: as §1

[25] = test system: Strep. pyogenes R80/421-A; assay: as above; format: cell-based; conditions: Streptococcus pyogenes, R80/421A, 18 h
Summary of the method: as §1

[26] = test system: Strep. spp. 64/848-C; assay: as above; format: cell-based; conditions: 18 h
Summary of the method: as §1

[27] = test system: E. coli E1; assay: MIC against veterinary bacteria in vitro (Diagnostic Sensitivity Test Agar); conditions: Escherichia coli, E1, 18 h
Experimental: The activity of the normonyl derivatives of the Examples against various veterinarily important bacteria, was assayed in vitro using two-fold serial dilutions in Diagnostic Sensitivity Test Agar inoculated with 10^4 organisms.

Q: Which results are given for `CC(=CC(=O)NN)CC1OCC(CC2OC2C(C)C(C)O)C(O)C1O` (stereo not drawn) [Example 9, Monohydrazide A]?
A: MIC [1]: 10 µg/mL (≈ 27.9 µM); MIC [2]: 10 µg/mL (≈ 27.9 µM); MIC [3]: 10 µg/mL (≈ 27.9 µM); MIC [4]: 10 µg/mL (≈ 27.9 µM); MIC [5]: 5 µg/mL (≈ 13.9 µM); MIC [6]: 5 µg/mL (≈ 13.9 µM); MIC [7]: ≥ 100 µg/mL; MIC [8]: > 100 µg/mL; MIC [9]: ≥ 100 µg/mL; MIC [10]: > 100 µg/mL; MIC [11]: 2.5 µg/mL (≈ 6.97 µM); MIC [12]: 2.5 µg/mL (≈ 6.97 µM); MIC [13]: > 100 µg/mL; MIC [14]: 2.5 µg/mL (≈ 6.97 µM); MIC [15]: ≥ 100 µg/mL; MIC [16]: 10 µg/mL (≈ 27.9 µM); MIC [17]: > 100 µg/mL; MIC [18]: > 100 µg/mL; MIC [19]: 100 µg/mL (≈ 279 µM); MIC [20]: ≥ 100 µg/mL; MIC [21]: ≥ 100 µg/mL; MIC [22]: ≥ 100 µg/mL; MIC [23]: > 100 µg/mL; MIC [24]: ≥ 100 µg/mL; MIC [25]: 100 µg/mL (≈ 279 µM); MIC [26]: ≥ 100 µg/mL; MIC [27]: > 80 µg/mL
